In one data set the test system is NF-κB response element. Description: Multiplexed Gluc-tag reporter assay, NF-κB response element. The data set is classed as cell-based. On the procedure:
(§1) Two separate detection assays were conducted to check the profile of FCICC (6-Formylindolo [3, 2-b] carbazole Indolo [3,2-b] carbazole-6-carboxaldehyde-5, 11-dihydro, an AhR response element inducer, commercially available from Biomol, Plymouth Meeting, Pa.) and IL-1β and TNF-α (NF-κB response element inducer).
(§2) Purified Antibodies were diluted in DPBS with 5% glycerol at 5 μg/ml concentration. […] of diluted antibody solutions were dispensed onto wells of a […] 600 plate (Greiner Bio-One, Monroe, N.C.), and the plate was tapped gently to distribute the antibody solutions evenly on the bottom of the well. The plate was sealed tightly with a PCR sealing film. The antibody plate was stored at 4° C. for one week for antibodies to bind.
(§3) At the end of incubation, 200 μl of Blocking Reagent (Attagene, Research Triangle Park, N.C.) was added to the wells to block the unbounded surface, either for 1 hour at room temperature for quick use, or at 4° C. overnight. The plate was washed 4 times with DPBS (Invitrogen, Carlsbad, Calif.) by flicking the solution out into a waste container and then blotted dry briefly on layers of paper towel. Target samples were diluted in Binding Reagent (Attagene, Inc., Research Triangle Park, N.C.). After the washing, 100 μl of diluted testing samples were added to the well and incubated at RT for 1 hour with gentle rocking agitation.
(§4) After the incubation, samples were removed by gently flicking and the plate was washed 4 times with DPBS as above. […] The reading was normalized against the minimal promoter driven reporter.

Another data set relates to AhR response element. Nature of the data set: Multiplexed Gluc-tag reporter assay, AhR response element. The data set is classed as cell-based. As for the experimental part: as §1, §2
At the end of incubation, 200 μl of Blocking Reagent (Attagene, Research Triangle Park, N.C.) was added to the wells to block the unbounded surface, either for 1 hour at room temperature for quick use, or at 4° C. overnight. The plate was washed 4 times with DPBS (Invitrogen, Carlsbad, Calif.) by flicking the solution out into a waste container and then blotted dry briefly on layers of paper towel. […]
as §4

In the next data set the test system is CRE. Description: Multiplexed Gluc-tag reporter assay, CRE. The data set is classed as cell-based. To be noted: twelve response elements/Gluc tags, four assays (FIG. 8). As for the experimental part: as §2, §3, §4
In general terms: Reporter assays use an easily measured gene product as a stand-in for the process of interest.

Data set [1] is described as follows: Stability of coelenterazine substrate in assay reagents. The note with it: over 70 minutes after dilution from methanol stock into assay reagents. In kind it is physicochemical. On the procedure: It is well known that coelenterazine is not stable in aqueous solutions. FIGS. 3C and 3D show the stability profiles of coelenterazine substrate in different assay reagents after being diluted from its methanol stock. A solution of Gluc enzyme was injected at different time points into substrates that were prepared at the same time. The overall signal strength decreased about ten times over 70 minutes and there was no significant difference among these buffers in the stability of the substrate. Once again, the Attagene reagent provided better sensitivity and stronger RLU output.

[2] abbreviates: seven antibodies on 96-well plate, two separate detection assays (FIGS. 7A, 7B).
Where [3] appears, read: twelve response elements/Gluc tags, four assays (FIG. 8).

These results are taken from US10544472B2, “Multiplexing transcription factor reporter protein assay process and system” (Attagene, Inc., priority 2014, dated 2020).

On to TNF-α, for which the “induction of NF-κB” value with NF-κB response element (setting [2]) and in the data set on NF-κB response element (setting [3]) was “specific induction” each time.
IL-1β: NF-κB response element inducer: the “induction of NF-κB” value in the data set on NF-κB response element (setting [2]) and with NF-κB response element (setting [3]) was “specific induction” in each case.
`O=Cc1c2[nH]c3ccccc3c2cc2c1[nH]c1ccccc12` [FCICC, 6-Formylindolo [3,2-b] carbazole Indolo [3,2-b] carbazole-6-carboxaldehyde-5, 11-dihydro]: the “induction of AhR” value in the data set on AhR response element (setting [2]) and in the data set with AhR response element (setting [3]) was “specific induction” in each case.
On to `C=C[C@@]1(C)CC(=O)[C@]2(O)[C@@]3(C)[C@@H](O)CCC(C)(C)[C@@H]3[C@H](O)[C@H](OC(C)=O)[C@@]2(C)O1` [FSK], for which the “induction of CRE” value in the data set on CRE is “specific induction”.
For `Oc1ccc(Cc2nc3c(Cc4ccccc4)nc(-c4ccc(O)cc4)cn3c2O)cc1` [coelenterazine], the “decrease of overall signal strength” value in data set [1] is reported as “about ten”.
